Results: PubChem BioAssay (NCI)
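These data come from cells grown in 96-well plates and exposed to compound for 48 hours at five concentrations. At the GI50, growth is halved. TGI is the concentration that stops growth completely.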

Key:
Assay in all cases: DTP human tumour cell line panel, 48 h
NCI-H226 lung = test system: NCI-H226 lung
SW-620 colon = test system: SW-620 colon
OVCAR-5 ovarian = test system: OVCAR-5 ovarian
T-47D breast = test system: T-47D breast
UO-31 renal = test system: UO-31 renal
ACHN renal = test system: ACHN renal
PC-3 prostate = test system: PC-3 prostate
NCI-H23 lung = test system: NCI-H23 lung
CAKI-1 renal = test system: CAKI-1 renal
HT29 colon = test system: HT29 colon
K-562 leukemia = test system: K-562 leukemia
SK-MEL-28 melanoma = test system: SK-MEL-28 melanoma
DU-145 prostate = test system: DU-145 prostate
A498 renal = test system: A498 renal
SK-MEL-5 melanoma = test system: SK-MEL-5 melanoma
OVCAR-3 ovarian = test system: OVCAR-3 ovarian
OVCAR-4 ovarian = test system: OVCAR-4 ovarian
IGROV1 ovarian = test system: IGROV1 ovarian
CCRF-CEM leukemia = test system: CCRF-CEM leukemia
MDA-MB-231 breast = test system: MDA-MB-231 breast
MOLT-4 leukemia = test system: MOLT-4 leukemia
RPMI-8226 leukemia = test system: RPMI-8226 leukemia
SF-539 CNS = test system: SF-539 CNS
BT-549 breast = test system: BT-549 breast
SR leukemia = test system: SR leukemia
OVCAR-8 ovarian = test system: OVCAR-8 ovarian
HOP-62 NSCLC = test system: HOP-62 NSCLC
SNB-75 CNS = test system: SNB-75 CNS
HL-60(TB) leukemia = test system: HL-60(TB) leukemia
SK-OV-3 ovarian = test system: SK-OV-3 ovarian
MDA-MB-435 = test system: MDA-MB-435
A549 NSCLC = test system: A549 NSCLC
HCT-15 colon = test system: HCT-15 colon
NCI/ADR-RES ovarian = test system: NCI/ADR-RES ovarian
TK-10 renal = test system: TK-10 renal
SN12C renal = test system: SN12C renal
UACC-257 melanoma = test system: UACC-257 melanoma
EKVX NSCLC = test system: EKVX NSCLC
COLO 205 colon = test system: COLO 205 colon
HS 578T breast = test system: HS 578T breast
HOP-92 NSCLC = test system: HOP-92 NSCLC
MALME-3M melanoma = test system: MALME-3M melanoma
U251 CNS = test system: U251 CNS
RXF 393 renal = test system: RXF 393 renal
NCI-H522 lung = test system: NCI-H522 lung
NCI-H460 lung = test system: NCI-H460 lung
KM12 colon = test system: KM12 colon
SK-MEL-2 melanoma = test system: SK-MEL-2 melanoma
HCT-116 colon = test system: HCT-116 colon
SNB-19 CNS = test system: SNB-19 CNS
M14 melanoma = test system: M14 melanoma
UACC-62 melanoma = test system: UACC-62 melanoma
HCC-2998 colon = test system: HCC-2998 colon
SF-295 CNS = test system: SF-295 CNS
MCF7 breast = test system: MCF7 breast
SF-268 CNS = test system: SF-268 CNS
786-0 renal = test system: 786-0 renal
LOX IMVI melanoma = test system: LOX IMVI melanoma

COc1cc2nc(Cl)nc(Nc3cccc(C4=Nc5c(N)nc(N)nc5NC(c5ccc(Cl)cc5)C4)c3)c2cc1OC (configuration not stated)
GI50 (NCI-H226 lung): 14.9 µM | TGI (NCI-H226 lung): 50.1 µM | GI50 (SW-620 colon): 1.85 µM | TGI (SW-620 colon): 3.79 µM | GI50 (OVCAR-5 ovarian): 2.12 µM | TGI (OVCAR-5 ovarian): 5.25 µM | GI50 (T-47D breast): 2.02 µM | TGI (T-47D breast): 4.61 µM | GI50 (UO-31 renal): 2.48 µM | TGI (UO-31 renal): 8.89 µM | GI50 (ACHN renal): 2.15 µM | TGI (ACHN renal): 4.87 µM | GI50 (PC-3 prostate): 3.97 µM | TGI (PC-3 prostate): 37.9 µM | GI50 (NCI-H23 lung): 2.69 µM | TGI (NCI-H23 lung): 8.4 µM | GI50 (CAKI-1 renal): 1.99 µM | TGI (CAKI-1 renal): 4.49 µM | GI50 (HT29 colon): 2.05 µM | TGI (HT29 colon): 4.53 µM | GI50 (K-562 leukemia): 1.91 µM | TGI (K-562 leukemia): 4.16 µM | GI50 (SK-MEL-28 melanoma): 1.66 µM | TGI (SK-MEL-28 melanoma): 3.1 µM | GI50 (DU-145 prostate): 2.07 µM | TGI (DU-145 prostate): 4.84 µM | GI50 (A498 renal): 10.5 µM | TGI (A498 renal): 26.9 µM | GI50 (SK-MEL-5 melanoma): 1.68 µM | TGI (SK-MEL-5 melanoma): 3.08 µM | GI50 (OVCAR-3 ovarian): 2.04 µM | TGI (OVCAR-3 ovarian): 4.2 µM | GI50 (OVCAR-4 ovarian): 2 µM | TGI (OVCAR-4 ovarian): 4.81 µM | GI50 (IGROV1 ovarian): 2.9 µM | TGI (IGROV1 ovarian): 10.9 µM | GI50 (CCRF-CEM leukemia): 1.59 µM | TGI (CCRF-CEM leukemia): 5.3 µM | GI50 (MDA-MB-231 breast): 1.63 µM | TGI (MDA-MB-231 breast): 3.29 µM | GI50 (MOLT-4 leukemia): 1.75 µM | TGI (MOLT-4 leukemia): 5.1 µM | GI50 (RPMI-8226 leukemia): 1.97 µM | TGI (RPMI-8226 leukemia): 4.84 µM | GI50 (SF-539 CNS): 1.72 µM | TGI (SF-539 CNS): 3.13 µM | GI50 (BT-549 breast): 7.93 µM | TGI (BT-549 breast): 38 µM | GI50 (SR leukemia): 1.91 µM | TGI (SR leukemia): 5.33 µM | GI50 (OVCAR-8 ovarian): 2.35 µM | TGI (OVCAR-8 ovarian): 5.99 µM | GI50 (HOP-62 NSCLC): 5.24 µM | TGI (HOP-62 NSCLC): 32.5 µM | GI50 (SNB-75 CNS): 2.39 µM | TGI (SNB-75 CNS): 14.3 µM | GI50 (HL-60(TB) leukemia): 1.79 µM | TGI (HL-60(TB) leukemia): 4.18 µM | GI50 (SK-OV-3 ovarian): 21.8 µM | TGI (SK-OV-3 ovarian): 48 µM | GI50 (MDA-MB-435): 1.64 µM | TGI (MDA-MB-435): 3.07 µM | GI50 (A549 NSCLC): 3.14 µM | TGI (A549 NSCLC): 16.1 µM | GI50 (HCT-15 colon): 2.07 µM | TGI (HCT-15 colon): 4.8 µM | GI50 (NCI/ADR-RES ovarian): 4.16 µM | TGI (NCI/ADR-RES ovarian): 92 µM | GI50 (TK-10 renal): 2.62 µM | TGI (TK-10 renal): 6.87 µM | GI50 (SN12C renal): 2.68 µM | TGI (SN12C renal): 8.1 µM | GI50 (UACC-257 melanoma): 2.43 µM | TGI (UACC-257 melanoma): 6.22 µM | GI50 (EKVX NSCLC): 2.44 µM | TGI (EKVX NSCLC): 9.17 µM

COc1cc(OC)cc(C(=O)Nc2cccc(C#Cc3cccc4[nH]nc(N)c34)c2)c1
GI50 (COLO 205 colon): 1.16 µM | TGI (COLO 205 colon): 3.63 µM | GI50 (NCI-H226 lung): 1.93 µM | TGI (NCI-H226 lung): 9.03 µM | GI50 (SW-620 colon): 0.689 µM | TGI (SW-620 colon): > 35 µM | GI50 (HS 578T breast): 1.25 µM | TGI (HS 578T breast): 5.43 µM | GI50 (OVCAR-5 ovarian): 2.97 µM | TGI (OVCAR-5 ovarian): 45.5 µM | GI50 (T-47D breast): 1.21 µM | TGI (T-47D breast): 13.8 µM | GI50 (UO-31 renal): 2.99 µM | TGI (UO-31 renal): 12.1 µM | GI50 (ACHN renal): 2.64 µM | TGI (ACHN renal): 14.7 µM | GI50 (HOP-92 NSCLC): 2.3 µM | TGI (HOP-92 NSCLC): 11.7 µM | GI50 (PC-3 prostate): 2.05 µM | TGI (PC-3 prostate): > 41.2 µM | GI50 (NCI-H23 lung): 2.14 µM | TGI (NCI-H23 lung): 11.7 µM | GI50 (CAKI-1 renal): 1.64 µM | TGI (CAKI-1 renal): 7.18 µM | GI50 (HT29 colon): 0.641 µM | TGI (HT29 colon): 5.37 µM | GI50 (K-562 leukemia): 0.331 µM | TGI (K-562 leukemia): > 100 µM | GI50 (SK-MEL-28 melanoma): 1.76 µM | TGI (SK-MEL-28 melanoma): 15.7 µM | GI50 (DU-145 prostate): 2.93 µM | TGI (DU-145 prostate): > 39 µM | GI50 (A498 renal): 4.5 µM | TGI (A498 renal): 11.1 µM | GI50 (SK-MEL-5 melanoma): 1.01 µM | TGI (SK-MEL-5 melanoma): 3.29 µM | GI50 (OVCAR-3 ovarian): 0.943 µM | TGI (OVCAR-3 ovarian): 11.8 µM | GI50 (MALME-3M melanoma): 0.782 µM | TGI (MALME-3M melanoma): 13.1 µM | GI50 (OVCAR-4 ovarian): 3.51 µM | TGI (OVCAR-4 ovarian): 23.6 µM | GI50 (IGROV1 ovarian): 1.13 µM | TGI (IGROV1 ovarian): 11.1 µM | GI50 (U251 CNS): 0.821 µM | TGI (U251 CNS): 15 µM | GI50 (CCRF-CEM leukemia): 0.808 µM | TGI (CCRF-CEM leukemia): > 56 µM | GI50 (MDA-MB-231 breast): 1.28 µM | TGI (MDA-MB-231 breast): 5.14 µM | GI50 (RXF 393 renal): 0.584 µM | TGI (RXF 393 renal): 3.03 µM | GI50 (NCI-H522 lung): 0.485 µM | TGI (NCI-H522 lung): 2.7 µM | GI50 (NCI-H460 lung): 0.586 µM | TGI (NCI-H460 lung): 10.8 µM | GI50 (MOLT-4 leukemia): 0.931 µM | TGI (MOLT-4 leukemia): 17.8 µM | GI50 (KM12 colon): 0.957 µM | TGI (KM12 colon): 10.4 µM | GI50 (SK-MEL-2 melanoma): 0.428 µM | TGI (SK-MEL-2 melanoma): 1.96 µM | GI50 (HCT-116 colon): 0.548 µM | TGI (HCT-116 colon): 10.7 µM | GI50 (RPMI-8226 leukemia): 1.77 µM | TGI (RPMI-8226 leukemia): 17.8 µM | GI50 (SNB-19 CNS): 2.46 µM | TGI (SNB-19 CNS): 30.9 µM | GI50 (M14 melanoma): 0.535 µM | TGI (M14 melanoma): 4.55 µM | GI50 (UACC-62 melanoma): 0.478 µM | TGI (UACC-62 melanoma): 6.49 µM | GI50 (SF-539 CNS): 0.621 µM | TGI (SF-539 CNS): 2.19 µM | GI50 (BT-549 breast): 1.32 µM | TGI (BT-549 breast): 6.32 µM | GI50 (SR leukemia): 0.133 µM | TGI (SR leukemia): 5.48 µM | GI50 (OVCAR-8 ovarian): 2.36 µM | TGI (OVCAR-8 ovarian): 13.7 µM | GI50 (HOP-62 NSCLC): 1.71 µM | TGI (HOP-62 NSCLC): 22.5 µM | GI50 (HCC-2998 colon): 1.98 µM | TGI (HCC-2998 colon): 4.92 µM | GI50 (SNB-75 CNS): 0.306 µM | TGI (SNB-75 CNS): 2.71 µM | GI50 (HL-60(TB) leukemia): 0.441 µM | TGI (HL-60(TB) leukemia): 2.51 µM | GI50 (SK-OV-3 ovarian): 3.68 µM | TGI (SK-OV-3 ovarian): 22.6 µM | GI50 (MDA-MB-435): 0.201 µM | TGI (MDA-MB-435): 0.49 µM | GI50 (A549 NSCLC): 1.43 µM | TGI (A549 NSCLC): 18.3 µM | GI50 (HCT-15 colon): 0.492 µM | TGI (HCT-15 colon): 12.5 µM | GI50 (NCI/ADR-RES ovarian): 1.66 µM | TGI (NCI/ADR-RES ovarian): 8.54 µM | GI50 (SF-295 CNS): 1.13 µM | TGI (SF-295 CNS): 5.17 µM | GI50 (TK-10 renal): 4.29 µM | TGI (TK-10 renal): 12.4 µM | GI50 (SN12C renal): 2.7 µM | TGI (SN12C renal): 13.9 µM | GI50 (MCF7 breast): 0.469 µM | TGI (MCF7 breast): 12.3 µM | GI50 (SF-268 CNS): 2.06 µM | TGI (SF-268 CNS): 11 µM | GI50 (UACC-257 melanoma): 2.04 µM | TGI (UACC-257 melanoma): 11.8 µM | GI50 (786-0 renal): 2.24 µM | TGI (786-0 renal): 11.3 µM | GI50 (EKVX NSCLC): 2.92 µM | TGI (EKVX NSCLC): > 38.2 µM | GI50 (LOX IMVI melanoma): 0.759 µM | TGI (LOX IMVI melanoma): 7.18 µM
